Test results reported in the NIST ThermoML archive (doi:10.1021/je500380x).
± gives the expanded uncertainty stated by the source.

Experiments:
[1] = 298.15 K, 101.33 kPa, Liquid; for viscosity: Falling or rolling sphere viscometry; for mass density: Vibrating tube method
[2] = mn = molality of the nth substance listed, in mol/kg; settings: 100 kPa, Liquid, m2 = 0; for viscosity: Falling or rolling sphere viscometry; for mass density: Vibrating tube method

Row | Structure (SMILES) | viscosity [1] | mass density [1] | viscosity ([2]; 293.15 K) | mass density ([2]; 293.15 K) | viscosity ([2]; 298.15 K) | mass density ([2]; 298.15 K) | viscosity ([2]; 303.15 K) | mass density ([2]; 303.15 K) | viscosity ([2]; 308.15 K) | mass density ([2]; 308.15 K) | viscosity ([2]; 313.15 K) | mass density ([2]; 313.15 K) | viscosity ([2]; 318.15 K) | mass density ([2]; 318.15 K) | viscosity ([2]; 323.15 K) | mass density ([2]; 323.15 K)
1 | CCO [ethanol] | 1.083 ± 0.013 mPa·s | 785.339 ± 0.13 kg/m3 | – | – | – | – | – | – | – | – | – | – | – | – | – | –
2 | CCO [ethanol] + CCC(=O)OCCN1CCNCC1 | – | – | 1.189 ± 0.015 mPa·s | 789.64 ± 0.15 kg/m3 | 1.083 ± 0.013 mPa·s | 785.34 ± 0.15 kg/m3 | 0.989 ± 0.012 mPa·s | 781.03 ± 0.15 kg/m3 | 0.905 ± 0.011 mPa·s | 776.68 ± 0.16 kg/m3 | 0.831 ± 0.01 mPa·s | 772.29 ± 0.16 kg/m3 | 0.765 ± 0.009 mPa·s | 767.86 ± 0.16 kg/m3 | 0.706 ± 0.009 mPa·s | 763.38 ± 0.16 kg/m3
3 | CO [methanol] | 0.559 ± 0.011 mPa·s | 786.671 ± 0.13 kg/m3 | – | – | – | – | – | – | – | – | – | – | – | – | – | –
4 | CO [methanol] + CCC(=O)OCCN1CCNCC1 | – | – | 0.595 ± 0.007 mPa·s | 791.38 ± 0.15 kg/m3 | 0.559 ± 0.007 mPa·s | 786.67 ± 0.15 kg/m3 | 0.527 ± 0.007 mPa·s | 781.95 ± 0.15 kg/m3 | 0.498 ± 0.006 mPa·s | 777.2 ± 0.16 kg/m3 | 0.471 ± 0.006 mPa·s | 772.43 ± 0.16 kg/m3 | 0.448 ± 0.006 mPa·s | 767.62 ± 0.16 kg/m3 | 0.428 ± 0.005 mPa·s | 762.77 ± 0.16 kg/m3
5 | O [water] | 0.887 ± 0.012 mPa·s | – | – | – | – | – | – | – | – | – | – | – | – | – | – | –
6 | O [water] + CCC(=O)OCCN1CCNCC1 | – | – | 0.994 ± 0.012 mPa·s | – | 0.887 ± 0.011 mPa·s | – | 0.799 ± 0.01 mPa·s | – | 0.726 ± 0.009 mPa·s | 994.07 ± 0.11 kg/m3 | 0.665 ± 0.008 mPa·s | – | 0.614 ± 0.008 mPa·s | – | 0.567 ± 0.007 mPa·s | –
